According to PMC5091859, “Protein Translation Enzyme lysyl-tRNA Synthetase Presents a New Target for Drug Development against Causative Agents of Loiasis and Schistosomiasis” (PLoS Neglected Tropical Diseases, 2016):
“And” between values parts separate entries of the source, which are not always exact repeats. Equal entries are not always repeated. Each block holds one compound with its values, some of them ahead of it.

Key:
[1] = target: T1, SmKRS (Schistosoma mansoni, UniProt A0A3Q0KK01); assay: Isothermal titration calorimetry, SmKRS; format: binding; conditions: 30°C
Method: (§1) ITC experiments were conducted at 30°C in the MicroCal ITC-200 apparatus (GE Healthcare) and results were fitted into graph using Microcal origin software. […] For LlKRS, titrations consisted of 0.4 μl of first injection followed by 39 injections of 1 μl with 150 s intervals between injections. For SmKRS, same titrations were performed with 120 s intervals.

[2] = parameters: method as in PMID 22704625; conditions: main limitation as a lead molecule; cited from earlier work
[3] = test system: malaria liver stage; parameters: method as in PMID 22704625; conditions: cited from earlier work
[4] = target: T2, LlKRS (Loa loa, UniProt A0A1I7VQ84); assay: Isothermal titration calorimetry, LlKRS; format: binding; conditions: 30°C
Method: as §1

[5] = target: human counterpart KRS (HsKRS); conditions: read-out: Affinity for human counterpart KRS; cited from earlier work
[6] = target: SmKRS (S. mansoni lysyl-tRNA synthetase), wild type (Schistosoma mansoni, UniProt A0A3Q0KK01); assay: Aminoacylation enzyme inhibition assay, SmKRS; format: biochemical; conditions: 500 nM enzyme, 100 μM ATP, 500 μM L-lysine, 18 μM SmtRNALys, 37°C
Method: Aminoacylation and enzyme inhibition assays for both KRSs were performed as described elsewhere [17, 48]. SmtRNA^Lys was refolded prior to enzyme assays by heating at 70°C for 10 minutes followed by addition of 10 mM MgCl2 and slow cooling to room temperature. Aminoacylation buffer for both worm KRSs contained 30 mM HEPES (pH 7.5), 150 mM NaCl, 30 mM KCl, 50 mM MgCl2, 1mM DTT, 100 μM ATP, 500 μM L-lysine, 18 μM SmtRNA^Lys, 2 U/ml E. coli inorganic pyrophosphatase (NEB) and 500 nM recombinant SmKRS or LlKRS protein at 37°C. Reaction at different time points was stopped by addition of 40 mM EDTA followed by transfer to ice. Recombinant maltose binding protein (MBP) was used as a control.

[7] = test system: malaria blood stage; parameters: method as in PMID 22704625; conditions: cited from earlier work
[8] = target: Loa loa lysyl-tRNA synthetase (Loa loa); assay: SEC; gel permeation chromatography of the purified protein on a column calibrated with high molecular weight standards, protein buffer as mobile phase, 0.5 ml/min; elution at dimer size, no absorbance at tetrameric size
[9] = target: Schistosoma mansoni lysyl-tRNA synthetase (Schistosoma mansoni); assay: as above
[10] = target: T2, LlKRS; assay: Protein thermal shift assay, LlKRS; format: binding; conditions: ligand 20 μM, KRS 2 μM (10:1), 1 mM L-lysine
Method: (§2) Protein melt curve assays for both worm KRSs were performed as reported earlier. Both KRSs were diluted in buffer containing 20 mM Tris (pH 8.0), 200 mM NaCl, 5 mM MgCl2, 1 mM L-lysine and 2 X SYPRO orange dye (Life Technologies). […] Ligand bound and unbound samples of both KRSs were heated from 20 to 96°C at a rate of 1°C min^-1 and fluorescence signals were monitored by StepOnePlus quantitative real-time PCR system (Life Technologies). […] Each curve was an average of three measurements and data were analyzed using thermal shift software (Life technologies). Samples without the addition of ligands were used to determine thermal melting profile of apo proteins. […] Derivative Tm (melting temperature) was used for analysis.

[11] = target: T1, SmKRS; assay: Protein thermal shift assay, SmKRS; format: binding; conditions: ligand 20 μM, KRS 2 μM (10:1), 1 mM L-lysine
Method: as §2

[12] = target: Human-like LlKRS V329Q/S346T mutant (Loa loa, UniProt A0A1I7VQ84); format: binding; conditions: ligand 20 μM, KRS 2 μM (ten fold), 1 mM L-lysine

n Value (one site model), SmKRS [1]: 0.979 ±0.00
ΔH (ITC), SmKRS [1]: -16.59 ± 0.2013 kcal/mol
ΔS (ITC), SmKRS [1]: -21.7 cal/mol/deg
Kd ([1]; PBS pH 7.4, 1 mM L-Lys, 2 mM MgCl2, read-out: Kd (ITC), SmKRS): 62.8 ± 7.8 nM
n Value (one site model), LlKRS [4]: 0.821 ± 0.01
ΔH (ITC), LlKRS [4]: -17.28 ± 0.3965 kcal/mol
ΔS (ITC), LlKRS [4]: -24.9 cal/mol/deg
IC50 [6]: 97 nM and ~97 nM
Compound: C[C@H]1CCC[C@H](C[C@H]2Cc3cc(O)cc(O)c3C(=O)O2)O1 [cladosporin]
Bioavailability [2]: Poor
IC50 [3]: < 100 nM
Kd [5]: 3300 nM
IC50 [7]: < 100 nM

stoichiometry N [8]: 2
Compound: Loa loa lysyl-tRNA synthetase (enzyme)

stoichiometry N [9]: 2
Compound: Schistosoma mansoni lysyl-tRNA synthetase (enzyme)

Compound: adenosine 5’-(β, γ-imido) triphosphate [AMPPNP]
Thermal shift of LlKRS [10]: ~ 0.3 °C
Thermal shift of SmKRS [11]: ~ 0.4 °C
Thermal shift of human-like LlKRS [12]: ~ 0.4 °C
